The record followed here is US12565489B2, “Heterocyclyl pyrimidines and triazines as novel fungicides” (Bayer Aktiengesellschaft, priority 2020, dated 2026).

Assay [1] deals with Colletotrichum lindemuthianum. Kind of assay: Colletotrichum lindemuthianum in vitro cell test. The settings on record: 144 h, 20 ppm of active ingredient, 6 days incubation, liquid culture, spectrometric measurement of mycelium growth, read-out: efficacy (inhibition of fungal growth). Type of assay: cell-based. The procedure: • Solvent: DMSO • Culture medium: 14.6 g anhydrous D-glucose (VWR), 7.1 g Mycological Peptone (Oxoid), 1.4 g granulated Yeast Extract (Merck), QSP 1 liter • Inoculum: spore suspension Fungicides were solubilized in DMSO and the solution used to prepare the required range of concentrations. […] A spore suspension of C. lindemuthianum was prepared and diluted to the desired spore density. Fungicides were evaluated for their ability to inhibit spores germination and mycelium growth in liquid culture assay. The compounds were added in the desired concentration to the culture medium with spores. After 6 days incubation, fungi-toxicity of compounds was determined by spectrometric measurement of mycelium growth. Inhibition of fungal growth was determined by comparing the absorbance values in wells containing the fungicides with the absorbance in control wells without fungicides.

A further assay deals with Alternaria brassicae. Description: In vivo preventive test on Alternaria brassicae (leaf spot on radish or cabbage). The note with it: 144 h, 500 ppm of active ingredient, preventive spray on young radish or cabbage plants, evaluated 6 days after inoculation, read-out: efficacy. Here is the method:
The active ingredients were made soluble and homogenized in a mixture of Dimethyl sulfoxide/Acetone//Tween®80 and then diluted in water to the desired concentration. The young plants of radish or cabbage were treated by spraying the active ingredient prepared as described above. Control plants were treated only with an aqueous solution of Acetone/Dimethyl sulfoxide/Tween® 80. After 24 hours, the plants were contaminated by spraying the leaves with an aqueous suspension of Alternaria brassicae spores.

Assay [2] relates to Botrytis cinerea. Kind of assay: In vivo preventive test on Botrytis cinerea (grey mould). The settings on record: 500 ppm of active ingredient, preventive spray on young gherkin or cabbage plants, evaluated 4 to 5 days after inoculation, read-out: efficacy. The procedure:
The active ingredients were made soluble and homogenized in a mixture of Dimethyl sulfoxide/Acetone//Tween®80 and then diluted in water to the desired concentration. The young plants of gherkin or cabbage were treated by spraying the active ingredient prepared as described above. Control plants were treated only with an aqueous solution of Acetone/Dimethyl sulfoxide/Tween® 80. After 24 hours, the plants were contaminated by spraying the leaves with an aqueous suspension of Botrytis cinerea spores.

Assay [3] concerns Botrytis cinerea. Description: Botrytis cinerea in vitro cell test. The class given is cell-based. The settings on record: 144 h, 20 ppm of active ingredient, 6 days incubation, liquid culture, spectrometric measurement of mycelium growth, read-out: efficacy (inhibition of fungal growth). The procedure: • Solvent: DMSO • Culture medium: 1 g KH2PO4 (VWR), 1 g K2HPO4 (VWR), 0.5 g Urea (VWR), 3 g KNO3 (Prolabo), 10 g saccharose (VWR), 0.5 g MgSO4, 7H2O (Sigma), 0.07 g CaCl2, 2H2O (Prolabo), 0.2 mg MnSO4, H2O (Sigma), 0.6 mg CuSO4, 5H2O (Sigma), 7.9 mg ZnSO4, 7H2O (Sigma), 0.1 mg H3BO3 (Merck), 0.14 mg NaMoO4, 2H2O (Sigma), 2 mg thiamine (Sigma), 0.1 mg biotine (VWR), 4 mg FeSO4, 7H2O (Sigma), QSP 1 liter • Inoculum: spore suspension Fungicides were solubilized in DMSO and the solution used to prepare the required range of concentrations. […] A spore suspension of B. cinerea was prepared and diluted to the desired spore density. Fungicides were evaluated for their ability to inhibit spore germination and mycelium growth in liquid culture assay. The compounds were added in the desired concentration to the culture medium with spores. After 6 days incubation, fungi-toxicity of compounds was determined by spectrometric measurement of mycelium growth. Inhibition of fungal growth was determined by comparing the absorbance values in wells containing the fungicides with the absorbance in control wells without fungicides.

Consider `Cc1ccc(CC2CON=C(c3nc(C)ncc3Oc3cccc(C(F)(F)F)c3)N2)c(C)c1` (racemic) [Compound I-002, (5RS)-5-(2,4-dimethylbenzyl)-3-{2-methyl-5-[3-(trifluoro-methyl)phenoxy]pyrimidin-4-yl}-5,6-dihydro-4H-1,2,4-oxadiazine], for which the inhibition at 20 ppm (in assay [1]; with Botrytis cinerea [3]) was 90 to 100% throughout. In addition, the pest or weed control at 500 ppm in the assay with Alternaria brassicae and in the assay with Botrytis cinerea [2] was 90 to 100% in each case.
On to `Cc1ccc(C[C@@H]2CON=C(c3nc(C)ncc3Oc3cccc(C4CC4)c3F)N2)c(Cl)c1` (racemic) [Compound I-008], for which the inhibition at 20 ppm (in assay [1]; with Botrytis cinerea [3]) was 90 to 100% in each case. Besides, the pest or weed control at 500 ppm in the assay with Alternaria brassicae and with Botrytis cinerea [2] was 90 to 100% throughout.
Regarding `Cc1ccc(C[C@@H]2CON=C(c3nc(C)ncc3Oc3cccc(Br)c3)N2)c(C)c1` (racemic) [Compound I-009], the inhibition at 20 ppm (in assay [1]; with Botrytis cinerea [3]) was 90 to 100% throughout. For the same compound, the pest or weed control at 500 ppm in the assay with Alternaria brassicae and in the assay with Botrytis cinerea [2] was 90 to 100% throughout.
Regarding `Cc1ccc(C[C@@H]2CON=C(c3nc(C)ncc3Oc3cccc(C4CC4)c3F)N2)c(C)c1` (racemic) [Compound I-016], the inhibition at 20 ppm (in assay [1]; in the assay on Botrytis cinerea [3]) was 90 to 100% each time. Further, the pest or weed control at 500 ppm in the assay with Alternaria brassicae and with Botrytis cinerea [2] was 90 to 100% each time.
For the compound `Cc1ncc(Oc2cccc(C(F)(F)F)c2)c(C2=NOC[C@@H](Cc3ccc(SC(F)(F)F)cc3)N2)n1` (racemic) [Compound I-030], the inhibition at 20 ppm (in assay [1]; in the assay with Botrytis cinerea [3]) was 90 to 100% in each case. Also, the figures for the pest or weed control at 500 ppm in the assay on Alternaria brassicae and with Botrytis cinerea [2] were 80 to 89% and 90 to 100%, respectively.
For `Cc1ccc(C[C@@H]2CON=C(c3nc(C)ncc3Oc3cccc(C4CC4)c3)N2)c(C)c1` (racemic) [Compound I-024], the inhibition at 20 ppm (in assay [1]; with Botrytis cinerea [3]) was 90 to 100% each time. In addition, the pest or weed control at 500 ppm with Alternaria brassicae and in the assay with Botrytis cinerea [2] was 90 to 100% in each case.
On to `Cc1ccc(C[C@@H]2CON=C(c3nc(C)ncc3Oc3cccc(C(F)(F)F)c3)N2)c(Cl)c1` (racemic) [Compound I-013], for which the inhibition at 20 ppm (in assay [1]; in the assay with Botrytis cinerea [3]) was 90 to 100% in each case. For the same compound, the pest or weed control at 500 ppm with Alternaria brassicae and in the assay on Botrytis cinerea [2] was 90 to 100% in each case.
With `C#Cc1ccc(CC2CON=C(c3nc(C)ncc3Oc3cccc(C(F)(F)F)c3)N2)c(C)c1` (racemic) [Compound I-026, (5RS)-5-[(4-ethynyl-2-methyl-phenyl)methyl]-3-[2-methyl-5-[3-(trifluoromethyl)phenoxy]pyrimidin-4-yl]-5,6-dihydro-4H-1,2,4-oxadiazine], the inhibition at 20 ppm (in assay [1]; with Botrytis cinerea [3]) was 90 to 100% in each case. The pest or weed control at 500 ppm with Alternaria brassicae and in the assay with Botrytis cinerea [2] was 90 to 100% in each case.
Take `COc1cccc(Oc2cnc(C)nc2C2=NOC[C@@H](Cc3ccc(C)cc3C)N2)c1` (racemic) [Compound I-032]: the inhibition at 20 ppm (in assay [1]; with Botrytis cinerea [3]) was 90 to 100% in each case. For the same compound, the pest or weed control at 500 ppm in the assay on Alternaria brassicae and in the assay with Botrytis cinerea [2] was 90 to 100% throughout.
For the compound `Cc1ccc(C[C@@H]2CON=C(c3nc(C)ncc3Oc3cccc(Cl)c3)N2)c(C)c1` (racemic) [Compound I-023], the inhibition at 20 ppm (in assay [1]; with Botrytis cinerea [3]) was 90 to 100% each time. Also, the pest or weed control at 500 ppm with Alternaria brassicae and in the assay on Botrytis cinerea [2] was 90 to 100% each time.
Regarding `Cc1ncc(Oc2cccc(C(F)(F)F)c2)c(C2=NOCC(Cc3ccc(Br)cc3C)N2)n1` (racemic) [Compound I-021, (5RS)-5-[(4-bromo-2-methyl-phenyl)methyl]-3-[2-methyl-5-[3-(trifluoro-methyl)phenoxy]pyrimidin-4-yl]-5,6-dihydro-4H-1,2,4-oxadiazine], the inhibition at 20 ppm (in assay [1]; in the assay with Botrytis cinerea [3]) was 90 to 100% in each case. The pest or weed control at 500 ppm in the assay on Alternaria brassicae and in the assay on Botrytis cinerea [2] was 90 to 100% throughout.
As for `Cc1ncc(Oc2cccc(C(F)(F)F)c2)c(C2=NOCC(Cc3ccc(C4CC4)cc3C)N2)n1` (racemic) [Compound I-029, (5RS)-5-[(4-cyclopropyl-2-methyl-phenyl)methyl]-3-[2-methyl-5-[3-(trifluoromethyl)phenoxy]pyrimidin-4-yl]-5,6-dihydro-4H-1,2,4-oxadiazine], the inhibition at 20 ppm (in assay [1]; in the assay on Botrytis cinerea [3]) was 90 to 100% in each case. The pest or weed control at 500 ppm in the assay on Alternaria brassicae and in the assay with Botrytis cinerea [2] was 90 to 100% throughout.
For the compound `CSc1ncc(Oc2cccc(C(F)(F)F)c2)c(C2=NOC[C@@H](Cc3ccc(C)cc3C)N2)n1` (racemic) [Compound I-017], the inhibition at 20 ppm (in assay [1]; in the assay on Botrytis cinerea [3]) was 90 to 100% in each case. Also, the pest or weed control at 500 ppm in the assay on Alternaria brassicae and in the assay on Botrytis cinerea [2] was 90 to 100% throughout.
With `Cc1ncc(Oc2cccc(C(F)(F)F)c2)c(C2=NOC[C@@H](Cc3ccc(C(F)F)cc3Cl)N2)n1` (racemic) [Compound I-033], the inhibition at 20 ppm (in assay [1]; with Botrytis cinerea [3]) was 90 to 100% throughout. Further, the pest or weed control at 500 ppm with Alternaria brassicae and in the assay on Botrytis cinerea [2] was 90 to 100% throughout.
For the compound `C=Cc1cccc(Oc2cnc(C)nc2C2=NOC[C@@H](Cc3ccc(C)cc3C)N2)c1` (racemic) [Compound I-019], the inhibition at 20 ppm (in assay [1]; with Botrytis cinerea [3]) was 90 to 100% each time. Further, the pest or weed control at 500 ppm in the assay with Alternaria brassicae and in the assay on Botrytis cinerea [2] was 90 to 100% each time.
For `Cc1cccc(Oc2cnc(C)nc2C2=NOC[C@@H](Cc3ccc(C)cc3C)N2)c1` (racemic) [Compound I-004], the inhibition at 20 ppm (in assay [1]; with Botrytis cinerea [3]) was 90 to 100% throughout. Further, the pest or weed control at 500 ppm in the assay with Alternaria brassicae and in the assay on Botrytis cinerea [2] was 90 to 100% in each case.
Turning to `C#Cc1cccc(Oc2cnc(C)nc2C2=NOC[C@@H](Cc3ccc(C)cc3C)N2)c1` (racemic) [Compound I-025], the inhibition at 20 ppm (in assay [1]; with Botrytis cinerea [3]) was 90 to 100% in each case. Besides, the pest or weed control at 500 ppm in the assay on Alternaria brassicae and in the assay on Botrytis cinerea [2] was 90 to 100% throughout.
For `Cc1ccc(C[C@@H]2CON=C(c3nc(C)ncc3Oc3cccc(Cl)c3)N2)c(Cl)c1` (racemic) [Compound I-018], the inhibition at 20 ppm (in assay [1]; in the assay with Botrytis cinerea [3]) was 90 to 100% each time. In addition, the pest or weed control at 500 ppm in the assay on Alternaria brassicae and in the assay with Botrytis cinerea [2] was 90 to 100% in each case.
Take `Cc1ccc(CC2CON=C(c3nc(C4CC4)ncc3Oc3cccc(C(F)(F)F)c3)N2)c(C)c1` (racemic) [Compound I-001, (5RS)-3-{2-cyclopropyl-5-[3-(trifluoro-methyl)phenoxy]pyrimidin-4-yl}-5-(2,4-dimethylbenzyl)-5,6-dihydro-4H-1,2,4-oxadiazine]: the inhibition at 20 ppm (in assay [1]; in the assay on Botrytis cinerea [3]) was 90 to 100% in each case. Further, the pest or weed control at 500 ppm in the assay with Alternaria brassicae and in the assay on Botrytis cinerea [2] was 90 to 100% each time.
In the case of `Cc1ccc(C[C@@H]2CON=C(c3nc(C)ncc3Oc3cccc(Cl)c3F)N2)c(Cl)c1` (racemic) [Compound I-005], the inhibition at 20 ppm (in assay [1]; with Botrytis cinerea [3]) was 90 to 100% in each case. Moreover, the pest or weed control at 500 ppm in the assay on Alternaria brassicae and in the assay with Botrytis cinerea [2] was 90 to 100% throughout.
In the case of `C=Cc1ccc(C[C@@H]2CON=C(c3nc(C)ncc3Oc3cccc(C(F)(F)F)c3)N2)c(C)c1` (racemic) [Compound I-006], the inhibition at 20 ppm (in assay [1]; in the assay with Botrytis cinerea [3]) was 90 to 100% in each case. The pest or weed control at 500 ppm was 90 to 100% with Alternaria brassicae and 80 to 89% with Botrytis cinerea [2].
